A short description of data set [1]: Solubility of sunscreens using cocoil glyceryl acetal as solubilizing agent. Type of data set: physicochemical. The following applies: solvent cocoil glyceryl acetal.
Data set [2] in a line: Tests of oral toxicity (GHS classification). Type of data set: in vivo. Conditions: rules of GHS.
A short description of data set [3]: Tests of ocular irritation (OECD and GHS). Type of data set: in vivo. Conditions: rules of OECD and GHS. An excerpt: In the tests of ocular irritation, the product has been classified as non-irritating according to the rules of OECD and GHS.
Data set [4] in a line: Tests of skin irritation (OECD and GHS). Type of data set: in vivo. The source says: Two new batches of cocoil glyceryl acetal were sent to confirm the tests of dermal irritation.

With `CCCCC(CC)COC(=O)c1ccc(Nc2nc(Nc3ccc(C(=O)OCC(CC)CCCC)cc3)nc(Nc3ccc(C(=O)OCC(CC)CCCC)cc3)n2)cc1` (stereo not shown) [Ethylhexyl Triazone], in data set [1], the “Solubility at 25° C.” value is recorded as 16.0 grams/100 grams of cocoil glyceryl acetal.
Regarding `COc1ccc(C(=O)CC(=O)c2ccc(C(C)(C)C)cc2)cc1` [4-(1,1-dimethylethyl)-4-methoxydibenzoylmethane], the “Solubility at 25° C.” value in data set [1] was 14.0 grams/100 grams of cocoil glyceryl acetal.
Consider cocoil glyceryl acetal, for which the Oral toxicity classification entry in data set [2] was “class 5 (non-toxic)”. For the same compound, in data set [3], the Ocular irritation classification result is “non-irritating”. Also, the Skin irritation finding entry in data set [4] (one of the tests) is on record as “mild dermal irritation”. Besides, the Skin irritation classification entry in data set [4] (two tests, rules of OECD and GHS) was “non-irritating”.
`CCCCCCOC(=O)c1ccccc1C(=O)c1ccc(N(CC)CC)cc1O` [Diethylamino hydroxybenzoi hexyl benzoate]: the “Solubility at 25° C.” value in data set [1] is given as 18.0 grams/100 grams of cocoil glyceryl acetal.

For the origin of these results see patent US20170174649A1, “ESTERS OF ACETALS, COMPOSITION THEREOF, METHODS OF PREPARATION AND MAIN USES THEREOF IN COSMETIC AREA” (GLYCEROSOLUTION QUIMICA LTDA, priority 2015, published 2017).
